# Measured values from paper PMC12163657 (ACS Omega, 2025).
# Numbering of substitutions follows the chain as printed.
# Tests used:
# [1] = Plasma protein binding, rapid equilibrium dialysis, dog plasma; type: in vitro ADME
# GR = molecular target: T1, GR (Homo sapiens, UniProt P04150); experiment: Reporter assay of gene transcription activity, GR; type: cell-based
# T1 sequence (P04150 1-777): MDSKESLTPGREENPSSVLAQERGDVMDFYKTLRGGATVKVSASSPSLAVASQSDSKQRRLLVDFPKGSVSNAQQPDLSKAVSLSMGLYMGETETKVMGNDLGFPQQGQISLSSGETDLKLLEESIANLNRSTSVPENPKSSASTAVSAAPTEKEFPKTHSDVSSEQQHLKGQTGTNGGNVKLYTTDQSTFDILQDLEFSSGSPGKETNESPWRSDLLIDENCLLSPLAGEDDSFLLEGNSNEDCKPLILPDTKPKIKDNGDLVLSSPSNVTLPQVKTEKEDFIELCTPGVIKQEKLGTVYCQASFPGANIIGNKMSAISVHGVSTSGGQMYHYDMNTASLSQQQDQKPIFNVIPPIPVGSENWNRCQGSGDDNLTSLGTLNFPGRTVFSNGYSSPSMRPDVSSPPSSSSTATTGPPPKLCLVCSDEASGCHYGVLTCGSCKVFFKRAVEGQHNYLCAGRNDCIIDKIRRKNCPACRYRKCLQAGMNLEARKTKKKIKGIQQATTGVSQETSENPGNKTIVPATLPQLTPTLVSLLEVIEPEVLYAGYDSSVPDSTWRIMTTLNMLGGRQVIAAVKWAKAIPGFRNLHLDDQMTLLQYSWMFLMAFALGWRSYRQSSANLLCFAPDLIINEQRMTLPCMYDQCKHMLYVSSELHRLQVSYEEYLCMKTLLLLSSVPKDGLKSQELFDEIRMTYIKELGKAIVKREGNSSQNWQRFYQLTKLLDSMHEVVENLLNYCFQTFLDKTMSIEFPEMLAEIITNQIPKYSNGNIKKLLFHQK
# [2] = Mouse hepatocyte stability; type: in vitro ADME; details: hepatocytes
# hERG ion channels = hERG ion channels (Homo sapiens, UniProt Q12809); experiment: hERG patch clamp assay; type: cell-based; details: at 30 μM
# Chain of hERG ion channels (Q12809 whole entry): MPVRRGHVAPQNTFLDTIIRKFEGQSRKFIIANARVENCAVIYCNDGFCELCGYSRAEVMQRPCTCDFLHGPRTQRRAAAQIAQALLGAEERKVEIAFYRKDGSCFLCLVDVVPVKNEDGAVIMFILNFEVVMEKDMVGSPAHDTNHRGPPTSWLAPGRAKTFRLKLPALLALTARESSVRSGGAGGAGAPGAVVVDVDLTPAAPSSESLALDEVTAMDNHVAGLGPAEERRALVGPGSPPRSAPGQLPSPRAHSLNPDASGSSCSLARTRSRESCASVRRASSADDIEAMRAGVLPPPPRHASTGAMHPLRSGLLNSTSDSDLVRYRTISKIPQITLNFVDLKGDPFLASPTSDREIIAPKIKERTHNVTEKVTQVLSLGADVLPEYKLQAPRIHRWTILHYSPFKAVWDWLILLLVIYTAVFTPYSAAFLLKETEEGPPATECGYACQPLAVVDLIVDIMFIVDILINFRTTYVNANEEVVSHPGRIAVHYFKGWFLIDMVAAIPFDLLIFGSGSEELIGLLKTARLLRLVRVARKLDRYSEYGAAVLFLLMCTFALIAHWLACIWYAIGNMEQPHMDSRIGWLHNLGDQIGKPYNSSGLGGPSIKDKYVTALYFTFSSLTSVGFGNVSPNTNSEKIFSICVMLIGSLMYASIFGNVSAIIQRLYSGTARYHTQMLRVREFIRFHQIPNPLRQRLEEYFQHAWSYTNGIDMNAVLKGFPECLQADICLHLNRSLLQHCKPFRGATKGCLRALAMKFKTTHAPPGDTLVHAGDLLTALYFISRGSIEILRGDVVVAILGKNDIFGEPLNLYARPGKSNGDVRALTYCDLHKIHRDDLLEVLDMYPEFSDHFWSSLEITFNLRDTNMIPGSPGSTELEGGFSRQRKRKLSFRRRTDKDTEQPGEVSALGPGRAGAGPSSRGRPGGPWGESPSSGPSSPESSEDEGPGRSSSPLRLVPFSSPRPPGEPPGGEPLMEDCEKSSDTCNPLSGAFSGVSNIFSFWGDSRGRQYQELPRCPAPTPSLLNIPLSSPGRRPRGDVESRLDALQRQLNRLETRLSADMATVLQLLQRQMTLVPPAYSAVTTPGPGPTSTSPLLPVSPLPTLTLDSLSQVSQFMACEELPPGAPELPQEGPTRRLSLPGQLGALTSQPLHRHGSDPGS
# ESR1 WT = molecular target: T2, ESR1 WT (Homo sapiens, UniProt P03372); experiment: AP; type: cell-based
# T2 sequence (P03372 1-595): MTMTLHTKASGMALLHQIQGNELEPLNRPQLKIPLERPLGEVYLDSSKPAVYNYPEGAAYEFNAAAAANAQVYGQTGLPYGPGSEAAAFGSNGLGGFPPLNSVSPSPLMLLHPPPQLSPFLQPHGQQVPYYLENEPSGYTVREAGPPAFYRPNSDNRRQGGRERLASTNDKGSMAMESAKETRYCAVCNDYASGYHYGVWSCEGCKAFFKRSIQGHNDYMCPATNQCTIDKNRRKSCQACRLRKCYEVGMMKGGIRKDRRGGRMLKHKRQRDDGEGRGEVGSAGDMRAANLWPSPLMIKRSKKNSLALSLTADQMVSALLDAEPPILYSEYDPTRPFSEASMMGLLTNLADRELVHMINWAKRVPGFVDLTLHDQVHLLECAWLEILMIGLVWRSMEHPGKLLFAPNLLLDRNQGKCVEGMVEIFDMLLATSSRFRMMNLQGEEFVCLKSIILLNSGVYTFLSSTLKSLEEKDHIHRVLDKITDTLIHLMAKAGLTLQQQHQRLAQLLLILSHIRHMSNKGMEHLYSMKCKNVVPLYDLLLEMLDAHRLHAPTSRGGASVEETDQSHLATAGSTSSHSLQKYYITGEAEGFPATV
# ST941/C cells = experiment: ST941/C cell proliferation; type: cell-based; details: read-out: ST941/C cell prolif. pIC50 (converted)
# ERα = molecular target: T3, ERα (Homo sapiens, UniProt P03372); experiment: Reporter assay of gene transcription activity, ERα; type: cell-based
# T3 sequence (P03372 1-595): T2 sequence (P03372 1-595)
# ESR1 Tyr537Ser = molecular target: T4, ESR1 Tyr537Ser (Homo sapiens, UniProt P03372, Y537S); experiment: AP; type: cell-based
# T4 sequence (P03372 1-595 Y537S): T2 sequence (P03372 1-595) with Y537S
# [3] = Single-dose pharmacokinetics, monkey; type: in vivo; details: serum
# CAMA-1 ESR1 WT cells = experiment: CAMA-1 cell proliferation, ESR1 WT; type: cell-based; details: Homo sapiens, CAMA-1, read-out: CAMA-1 cell prolif. pIC50 (converted)
# [4] = Plasma protein binding, rapid equilibrium dialysis, cyno plasma; type: in vitro ADME, cynomolgus monkey
smiles,measurement,setting,value
"CCCN1CC(Oc2ccc([C@@H]3c4[nH]c5ccccc5c4C[C@@H](C)N3CC(C)(C)F)cc2)C1 [compound 21, (1R,3R)-2-(2-Fluoro-2-methylpropyl)-3-methyl-1-(4-((1-propylazetidin-3-yl)oxy)phenyl)-2,3,4,9-tetrahydro-1H-pyrido[3,4-b]indole]",Plasma free drug percentage,[1],0.04%
same,IC50,GR,> 3160 nM
same,agonist cross-reactivity on GR,GR; in words,no agonist cross-reactivity
same,"GR pIC50, antag. mode","GR; reporter assay, antag. mode",<5.5
same,half-life,[2],> 6 h
same,hepatocyte CLint,[2],< 3.9 µL/min/1e6 cells
same,hERG inhibition,hERG ion channels,did not inhibit
same,IC50,ESR1 WT,2.51 nM
same,IC50,ST941/C cells,31.6 nM
same,IC50,"ERα; ERα pIC50, agonist mode, agonist mode",> 3160 nM
same,IC50,"ERα; ERα pIC50, antag. mode, antag. mode",1 nM
same,IC50,ESR1 Tyr537Ser,50.1 nM
same,AUC,"[3]; iv, 3 mg/kg",3420 ng·h/mL
same,Cmax,"[3]; iv, 3 mg/kg",651 ng/mL
same,Vd,"[3]; iv, 3 mg/kg",49 L/kg
same,clearance,"[3]; iv, 3 mg/kg",13.3 mL/min/kg
same,half-life,"[3]; iv, 3 mg/kg",42 h
same,AUC,"[3]; po, 10 mg/kg",5090 ng·h/mL
same,Cmax,"[3]; po, 10 mg/kg",170 ng/mL
same,Tmax,"[3]; po, 10 mg/kg",8 h
same,bioavailability,"[3]; po, 10 mg/kg",44.4%
same,half-life,"[3]; po, 10 mg/kg",34 h
same,IC50,CAMA-1 ESR1 WT cells,1.58 nM
same,Plasma free drug percentage,[4],0.13%
